# Results: patent publication US20040162247A1, “Therapeutic agent or osteoporosis comprising an active ingredient of quercetin derivatives” (priority 2000, published 2004)
# Several values for one entry are separate records, joined by “and”; a condition that tells them apart may be missing. Equal values may be shown once.
# How the values were obtained:
# [1] = tested on: ovariectomized rats; experiment: Biochemical parameters in plasma of ovariectomized rats; type: in vivo, Female SD (Sprague-Dawley) rats; conditions: rat, in vivo
# Procedure: (§1) When test agents were administered, for a certain period of time before and after administration, 1.5 ml of blood was sampled from tail vein using a catheter (B.D Co.: 24 G) and subjected to complete blood count (Coulter Co.: JT) and biochemical analyses of plasma (Crone Co.: Airon® 200). During autopsy, blood was sampled from caudal venae cavae and subjected to the analyses above. And then, each sample was frozen to store for measurement of trabecular bone area of femur and examination of internal organs.
# Since blood reflects the condition of body, safety of quercetin in the body was evaluated by measuring biochemical parameters: that is, blood samples were obtained from the rat prior to operation, one week after operation, and 10 weeks after operation, and measured were levels of alkaline phosphatase (ALP), calcium, inorganic phosphate, blood urea nitrogen (BUN), creatinin, total cholesterol, HDL-cholesterol and LDL-cholesterol (see: Table 8).
# [2] = rat, in vivo
# Procedure: Female SD (Sprague-Dawley) rats, a model animal for type I osteoporosis occurring after menopause were employed for evaluating pharmacological effectiveness of quercetin. Female rats (10 weeks old) weighing 200 to 300 g, obtained from the Korea Research Institute of Chemical Technology were employed as experimental animals. Experiment was carried out by the procedure which comprises removing ovary, administration of agents to the each group of rats, and at certain days after ovariectomy, the rats were sacrificed and subjected to analyses including measurement of body weight, examination of internal organs, measurement of trabecular bone area, complete blood count, and biochemical analyses of plasma.
# The Sham group, animals operated upon for the surgery as in the ovariectomized rats except for removing ovary, were employed to compare the changes caused solely by ovariectomy in control group which were ovariectomized but no agent was administered. Control group was employed to compare the changes caused by administration of agents in test group which were ovariectomized and administered with testing agents.
# During the period of administration, blood was sampled once a week. After 9-week administration, entire blood was withdrawn with heparin treatment. Following complete blood count (CBC), the blood was centrifuged at 3,000 rpm for 20 minutes to obtain plasma which was stored at −70° C. until use. For measurement of bone mineral density, the lumbar spine L5 and L6, and right tibia were removed and stored separately in 4% (v/v) formalin solution.
# [3] = tested on: ovariectomized rats; experiment: Trabecular bone area of lumbars in ovariectomized rats;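 for Change Rate (%) of TBA of lumbars, of control group: control group rats were ovariectomized and are not the sham group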; type: in vivo, Female SD (Sprague-Dawley) rats; conditions: OVX rats, 9 weeks i.p. (E2 1 μg/kg/day; quercetin, genistein 10 mg/kg/day)
# Procedure: (§2) Trabecular bone area (TBA) of lumbar and tibia removed from the rats of each group which was treated with various agents for 9 weeks were measured as follows: that is, using a digitalizer of quantitative image analysis system (Wild Leitz Co.), image of each trabecula was obtained on computer monitor by drawing a contour of the trabecula, and then, using a computer, calculated were average areas of trabeculae within a rectangle of 2×10^6 μm^2 area wherein the width is about ⅔ of the length of growth plate which located underneath of growth plate at proximity of tibia. Also, following the number of trabeculae within the rectangle were obtained, average area was multiplied by the number of trabeculae to obtain trabecular bone area of each sample bone, which was analyzed statistically (see: Table 5).
# TBAs of lumbars removed from the animal treated with test agents for 9 weeks were measured employing the same method above (see: Table 6).
# [4] = tested on: ovariectomized rats; experiment: Complete blood count in ovariectomized rats; type: in vivo, Female SD (Sprague-Dawley) rats; conditions: rat, in vivo
# Procedure: as §1
# Complete blood count which reflects the condition and abnormality of the body was measured to find out abnormality in test animals caused by administrtion of agents. That is, to find out changes in hematopoiesis of test rats, measured were red blood cell (RBC) count, concentration of hemoglobin (Hb) and hematocrit (Ht) of-blood samples obtained from the rats prior to operation and the rats 10 weeks after administrating agents following operation, and to find out changes in immune system such as inflammation and necrosis of tissues, measured were white blood cell count, lymphocyte count, monocyte count, and granulocyte count (see: Table 7).
# [5] = tested on: ovariectomized rats; experiment: Trabecular bone area of tibia in ovariectomized rats;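 for Change Rate (%) of TBA of tibia, of control group: control group rats were ovariectomized and are not the sham group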; type: in vivo, Female SD (Sprague-Dawley) rats; conditions: OVX rats, 9 weeks i.p. (E2 1 μg/kg/day; quercetin, genistein 10 mg/kg/day)
# Procedure: as §2
smiles,measurement,setting,value
"C[C@]12CC[C@@H]3c4ccc(O)cc4CC[C@H]3[C@@H]1CC[C@@H]2O [E2, 17β-estradiol]",Concentration of ALP in plasma,[1],196.01 ± 28.34 U/dL
same,Concentration of HDL-cholesterol in plasma,[1],52.30 ± 2.01 mg/dL
same,Concentration of LDL-cholesterol in plasma,[1],24.49 ± 1.63 mg/dL
same,Concentration of blood urea nitrogen (BUN),[1],18.36 ± 1.01 mg/dL
same,Concentration of calcium in plasma,[1],10.86 ± 0.40 mg/dL
same,Concentration of creatinin in plasma,[1],0.55 ± 0.05 mg/dL
same,Concentration of inorganic phosphate in plasma,[1],6.90 ± 0.52 mg/dL
same,Concentration of total cholesterol in plasma,[1],76.79 ± 2.80 mg/dL
same,Weight,[2],228.51 ± 8.11 g
same,TBA (trabecular bone area) of lumbars,[3],89.16 ± 2.83 ×10^4 μm^2
same,"Change Rate (%) of TBA of lumbars, of control group",[3]; control group = 100,132% and 132.04 ± 4.19 %
same,Concentration of hemoglobin(Hb),[4],15.86 ± 0.24 g/dL
same,Hematocrit(Ht),[4],43.11 ± 0.55%
same,"Lymphocyte and granulocyte count, before versus after operation (in words)",[4],rapid decrease
same,Lymphocyte count,[4],17.80 ± 1.72 ×10^3 cells/μl
same,Red blood cell(RBC) count,[4],7.33 ± 0.13 ×10^6 cells/μl
same,White blood cell count,[4],23.14 ± 1.50 ×10^3 cells/μl
same,"White blood cell count, before versus after operation (in words)",[4],decreased
same,TBA (trabecular bone area) of tibia,[5],51.40 ± 2.28 ×10^4 μm^2
same,"Change Rate (%) of TBA of tibia, of control group",[5]; control group = 100,148% and 148.46 ± 6.59%
